Measurements from ChEMBL document CHEMBL3217406, “Small molecules aimed at type III secretion systems to inhibit bacterial virulence” (Medchemcomm, 2013).
Values after ≈ are worked out from the molar mass of the structure shown.

Assays:
[1] = Inhibition of T3SS-mediated ExoU secretion in Pseudomonas aeruginosa PA103
[2] = Inhibition of T3SS-mediated SipB secretion in Salmonella typhimurium; set-up: species or system Salmonella enterica subsp. enterica serovar Typhimurium
[3] = Inhibition of T3SS-mediated LcrQ secretion in Yersinia pseudotuberculosis assessed as yopE promoter-luciferase gene expression by luciferase reporter gene assay
[4] = Inhibition of Escherichia coli T3SS-mediated hemolysis of erythrocytes
[5] = Inhibition of T3SS-mediated carboxypeptidase G2-SopE2-HA secretion in Salmonella typhimurium by fluorescence analysis; set-up: species or system Salmonella enterica subsp. enterica serovar Typhimurium
[6] = Inhibition of T3SS-mediated YopE secretion in Yersinia pestis KIM19 by ELISA
[7] = Inhibition of Escherichia coli T3SS-mediated hemolysis of sheep erythrocytes by microplate reader analysis
[8] = Inhibition of phospholipase A2 activity of Pseudomonas aeruginosa N-terminal His6-tagged ExoU expressed in Escherichia coli BL21 cells using arachidonic TEPC as substrate by Ellman's method

**Q.** What does the source list for `O=C(O)C(Cc1ccc(Cl)cc1)Nc1nc(-c2ccc(-c3ccccc3)cc2)nc(N2CCN(c3ccccn3)CC2)n1` (configuration not stated)?
**A.** IC50 [1]: > 100 µM; IC50 [2]: 20 µM

**Q.** With `O=C(N/N=C/c1cc(Br)cc(Br)c1O)c1cccnc1` as the compound, how does the IC50 [3] read?
**A.** The IC50 was 25 µM.

**Q.** With `C/C=C\C=C\[C@@H]1O[C@](O)([C@H](CC)C(=O)NC/C=C/C=C(\C)[C@@H](OC)[C@@H](C)[C@@H]2O[C@H](/C=C/C=C/C=C(\C)C(=O)c3c(O)ccn(C)c3=O)[C@H](O)[C@@H]2O)[C@H](O)[C@H](O)C1(C)C` as the compound, how does the IC50 [4] read?
**A.** The IC50 was 1.5 µg/mL (≈ 1.85 µM).

**Q.** Which IC50 [5] does the source give for `O=C(N/N=C/c1cc(Br)cc(Br)c1O)c1ccc([N+](=O)[O-])cc1` here?
**A.** The IC50 was 5.5 µM.

**Q.** What about the IC50 [3] of the same compound?
**A.** Its IC50 is 15 µM.

**Q.** With `O=C(N/N=C/c1ccc(O)cc1O)c1ccc([N+](=O)[O-])cc1` as the compound, how does the IC50 [3] read?
**A.** Its IC50 is 25 µM.

**Q.** For `O=C(N/N=C/c1cc(Cl)cc(Cl)c1O)c1ccccc1`, which IC50 [3] is on record?
**A.** Its IC50 is 25 µM.

**Q.** Which IC50 [6] does the source give for `O=C(Cc1csc(NC(=O)c2ccccc2)n1)Nn1cnc2scc(-c3ccco3)c2c1=O` here?
**A.** The IC50 was 20 µM.

**Q.** With `CC(C)[C@H](NC(=O)[C@H](C)NC(=O)[C@@H](N)[C@@H](N)CC[C@@H](O)[C@@H](O)C(O)[C@@H]1CN(C(N)=O)C(=N)N1)C(=O)O` (some centres not stated) as the compound, how does the IC50 [7] read?
**A.** Its IC50 is 0.02 µM.

**Q.** With `NC(=O)c1cccc2c1-c1ccccc1C2` as the compound, how does the IC50 [8] read?
**A.** Its IC50 is 7 µM.

**Q.** For `CC(=O)Nc1ccc(N2C(=O)c3ccc(C(=O)OC(C)C(=O)c4c[nH]c5ccccc45)cc3C2=O)cc1` (configuration not stated), which IC50 [6] is on record?
**A.** The IC50 was 20 µM.
